Literature values, collected in patent US9662309B2, “Anti-demodicosis agent” (BAYER INTELLECTUAL PROPERTY GMBH, priority 2004, dated 2017).

System: demodicosis
Conditions: spot-on treatment 3 times weekly

Substance: 22,23-dihydroavermectin B1 [ivermectin]
- effectiveness against demodicosis: insufficiently effective
